Laboratory results as given in patent US12077503B2, “Substituted cyclic amides and their use as herbicides” (FMC CORPORATION, priority 2015, dated 2024).

Key:
Format in all cases: in vivo
Kochia (Kochia scoparia) [1] = assay: Test A preemergence
Procedure, shortened: (§1)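 Visual injury scores from 0, no effect, to 100, complete control, were assigned versus untreated controls roughly 10 d after treatment in the greenhouse. Test chemicals, formulated with surfactant in a non-phytotoxic solvent, were applied to planted seeds as a preemergence soil spray or postemergence to one- to two-leaf plants 2 to 10 cm tall, in loam–sand soil.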

[2] = system: barnyardgrass (Echinochloa crus-galli); assay: Test A preemergence
Procedure, shortened: as §1

[3] = system: giant foxtail (Setaria faberii); assay: Test A preemergence
Procedure, shortened: as §1

[4] = system: pigweed (Amaranthus retroflexus); assay: Test A preemergence
[5] = system: ragweed (common ragweed, Ambrosia elatior); assay: Test A preemergence
Procedure, shortened: as §1

[6] = system: ryegrass, Italian (Italian ryegrass, Lolium multiflorum); assay: Test A preemergence
Procedure, shortened: as §1

[7] = system: Galium (catchweed bedstraw, Galium aparine); assay: Test A postemergence; settings: postemergence, 0 to 100 scale (0 no effect, 100 complete control)
Procedure, shortened: as §1

Kochia (Kochia scoparia) [8] = assay: Test A postemergence; settings: postemergence, 0 to 100 scale (0 no effect, 100 complete control)
Procedure, shortened: as §1

[9] = system: barnyardgrass (Echinochloa crus-galli); assay: Test A postemergence; settings: postemergence, 0 to 100 scale (0 no effect, 100 complete control)
Procedure, shortened: as §1

[10] = system: blackgrass (Alopecurus myosuroides); assay: Test A postemergence; settings: postemergence, 0 to 100 scale (0 no effect, 100 complete control)
Procedure, shortened: as §1

corn (Zea mays) = assay: Test A postemergence; settings: postemergence, 0 to 100 scale (0 no effect, 100 complete control)
Procedure, shortened: as §1

[11] = system: giant foxtail (Setaria faberii); assay: Test A postemergence; settings: postemergence, 0 to 100 scale (0 no effect, 100 complete control)
Procedure, shortened: as §1

[12] = system: pigweed (Amaranthus retroflexus); assay: Test A postemergence; settings: postemergence, 0 to 100 scale (0 no effect, 100 complete control)
Procedure, shortened: as §1

[13] = system: ragweed (common ragweed, Ambrosia elatior); assay: Test A postemergence; settings: postemergence, 0 to 100 scale (0 no effect, 100 complete control)
Procedure, shortened: as §1

[14] = system: ryegrass, Italian (Italian ryegrass, Lolium multiflorum); assay: Test A postemergence; settings: postemergence, 0 to 100 scale (0 no effect, 100 complete control)
Procedure, shortened: as §1

[15] = system: wheat (Triticum aestivum); assay: Test A postemergence; settings: postemergence, 0 to 100 scale (0 no effect, 100 complete control)
Procedure, shortened: as §1

[16] = system: barnyardgrass (Echinochloa crus-galli); assay: Test B flooded paddy test; settings: Flood, 250 g ai/ha; 0 to 100 scale where 0 is no effect and 100 is complete control; 13 to 15 d
Procedure, shortened: (§2)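 Rating scale 0–100 (visual, vs untreated controls) after a 13–15 d greenhouse period; application to the flood layer, 3 cm above soil and maintained; plants at 2-leaf stage when treated.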

[17] = system: ducksalad (Heteranthera limosa); assay: Test B flooded paddy test; settings: Flood, 250 g ai/ha; 0 to 100 scale where 0 is no effect and 100 is complete control; 13 to 15 d
Procedure, shortened: as §2

rice (Oryra sativa) = assay: Test B flooded paddy test; settings: Flood, 250 g ai/ha; 0 to 100 scale where 0 is no effect and 100 is complete control; 13 to 15 d
Procedure, shortened: as §2

[18] = system: sedge, umbrella (small-flower umbrella sedge, Cyperus difformis); assay: Test B flooded paddy test; settings: Flood, 250 g ai/ha; 0 to 100 scale where 0 is no effect and 100 is complete control; 13 to 15 d
Procedure, shortened: as §2

[19] = 125 g ai/ha, Preemergence, visual injury after approximately 10 d, 0 to 100 scale where 0 is no effect and 100 is complete control
[20] = 500 g ai/ha, preemergence, 0 to 100 scale, 0 = no effect, 100 = complete control
[21] = 125 g ai/ha, visual rating after approx. 10 d
[22] = 500 g ai/ha, visual injury, approx. 10 d

CN1CC(c2ccc(F)c(F)c2)C(C(=O)Nc2ccccc2S(C)(=O)=O)C1=O (stereo not drawn) [Compound 640]
Plant response rating, Kochia (Kochia (Kochia scoparia) [1]; [19]): 50 | Plant response rating, Kochia (Kochia (Kochia scoparia) [1]; [20]): 60 | Plant response rating, Barnyardgrass [2, 19]: 90 | Plant response rating, Barnyardgrass [2, 20]: 90 | Plant response rating, Foxtail, Giant [3, 19]: 90 | Plant response rating, Foxtail, Giant [3, 20]: 90 | Plant response rating, Pigweed [4, 19]: 80 | Plant response rating, Pigweed [4, 20]: 90 | Plant response rating, Ragweed [5, 19]: 40 | Plant response rating, Ragweed [5, 20]: 60 | Plant response rating, Ryegrass, Italian [6, 19]: 20 | Plant response rating, Ryegrass, Italian [6, 20]: 50 | Plant response rating, Galium [7, 21]: 40 | Plant response rating, Galium [7, 22]: 50 | Plant response rating, Kochia (Kochia (Kochia scoparia) [8]; [21]): 0 | Plant response rating, Kochia (Kochia (Kochia scoparia) [8]; [22]): 40 | Plant response rating, Barnyardgrass [9, 21]: 90 | Plant response rating, Barnyardgrass [9, 22]: 90 | Plant response rating, Blackgrass [10, 21]: 0 | Plant response rating, Blackgrass [10, 22]: 50 | Plant response rating, Corn (corn (Zea mays); [21]): 0 | Plant response rating, Corn (corn (Zea mays); [22]): 0 | Plant response rating, Foxtail, Giant [11, 21]: 80 | Plant response rating, Foxtail, Giant [11, 22]: 90 | Plant response rating, Pigweed [12, 21]: 0 | Plant response rating, Pigweed [12, 22]: 20 | Plant response rating, Ragweed [13, 21]: 0 | Plant response rating, Ragweed [13, 22]: 0 | Plant response rating, Ryegrass, Italian [14, 21]: 0 | Plant response rating, Ryegrass, Italian [14, 22]: 0 | Plant response rating, Wheat [15, 21]: 0 | Plant response rating, Wheat [15, 22]: 50 | Plant response rating, Barnyardgrass [16]: 30 | Plant response rating, Ducksalad [17]: 100 | Plant response rating, Rice (rice (Oryra sativa)): 25 | Plant response rating, Sedge, Umbrella [18]: 0
